# Measured values from patent US20070093520A1, “Method of treatment of diarrhea-predominant irritable bowel syndrome in a subject” (priority 2005, published 2007).
# Test system: diarrhea-predominant IBS subjects
# Experiment: 3007 Study: open-label 52-week safety study, adverse events and withdrawals
# Settings: Overall
compound,measurement,value
"Cc1nccn1C[C@H]1CCc2c(c3cccc4c3n2CCC4)C1=O [cilansetron, (R)-(−)-4,5,6,8,9,10-hexahydro-10-[(2-methyl-1H-imidazol-1-yl)methyl]-11H-pyrido-[3,2,1-jk]-carbazol-11-one]",TEAE: Memory Loss (Excl Dementia),1 (<1%) n (%)
same,TEAE: Meniere's Disease,1 (<1%) n (%)
same,TEAE: Menorrhagia*,2 (<1%) n (%)
same,TEAE: Menstruation Irregular*,1 (<1%) n (%)
same,TEAE: Menstruation and Uterine Bleeding NEC*,2 (<1%) n (%)
same,TEAE: Menstruation with Decreased Bleeding*,1 (<1%) n (%)
same,TEAE: Menstruation with Increased Bleeding*,3 (<1%) n (%)
same,TEAE: Mental Disorders NEC,1 (<1%) n (%)
same,TEAE: Mental Status Changes,1 (<1%) n (%)
same,TEAE: Metabolic Bone Disorders,3 (<1%) n (%)
same,TEAE: Metabolism Tests NEC,6 (1%) n (%)
same,TEAE: Metabolism and Nutrition Disorders,21 (4%) n (%)
same,TEAE: Middle Ear Disorders NEC,1 (<1%) n (%)
same,TEAE: Migraine Headaches,5 (<1%) n (%)
same,TEAE: Migraine NOS,5 (<1%) n (%)
same,TEAE: Mineral and Electrolyte Analyses,2 (<1%) n (%)
same,TEAE: Monoarthritis,2 (<1%) n (%)
same,TEAE: Monocyte Count Decreased,2 (<1%) n (%)
same,TEAE: Monocyte Count Increased,2 (<1%) n (%)
same,TEAE: Mononeuropathies,3 (<1%) n (%)
same,TEAE: Motion Sickness,1 (<1%) n (%)
same,TEAE: Movement Disorder NOS,1 (<1%) n (%)
same,TEAE: Muscle Cramps,10 (2%) n (%)
same,TEAE: Muscle Infections and Inflammations,1 (<1%) n (%)
same,TEAE: Muscle Pains,3 (<1%) n (%)
same,TEAE: Muscle Related Signs and Symptoms NEC,11 (2%) n (%)
same,TEAE: Muscle Spasms,1 (<1%) n (%)
same,TEAE: Muscle Strain,8 (1%) n (%)
same,TEAE: Muscle Tone Abnormalities,1 (<1%) n (%)
same,"TEAE: Muscle, Tendon and Ligament Injuries",10 (2%) n (%)
same,TEAE: Musculoskeletal Chest Pain,1 (<1%) n (%)
same,TEAE: Musculoskeletal and Connective Tissue Disorders,87 (16%) n (%)
same,TEAE: Musculoskeletal and Connective Tissue Signs and Symptoms NEC,33 (6%) n (%)
same,TEAE: Musculoskeletal and Soft Tissue Imaging Procedures,1 (<1%) n (%)
same,TEAE: Myalgia,2 (<1%) n (%)
same,TEAE: Myasthenia Gravis,1 (<1%) n (%)
same,TEAE: Mycoplasma Infections,1 (<1%) n (%)
same,TEAE: Myeloradiculopathy,1 (<1%) n (%)
same,TEAE: Myocardial Infarction,1 (<1%) n (%)
same,TEAE: Myositis,1 (<1%) n (%)
same,TEAE: Nail Fungal Infection NOS,2 (<1%) n (%)
same,TEAE: Nail Infection NOS,1 (<1%) n (%)
same,TEAE: Nail and Nail Bed Conditions (Excl Infections and Infestations),1 (<1%) n (%)
same,TEAE: Nasal Congestion and Inflammations,8 (1%) n (%)
same,TEAE: Nasopharyngitis,28 (5%) n (%)
same,TEAE: Nausea,25 (5%) n (%)
same,TEAE: Nausea and Vomiting Symptoms,33 (6%) n (%)
same,TEAE: Neck Pain,1 (<1%) n (%)
same,TEAE: Neoplasms Benign Site Unspecified NEC,2 (<1%) n (%)
same,"TEAE: Neoplasms Benign, Malignant and Unspecified (Incl Cysts and Polyps)",15 (3%) n (%)
same,TEAE: Nervous System Disorders,64 (12%) n (%)
same,TEAE: Neurological Signs and Symptoms NEC,6 (1%) n (%)
same,TEAE: Neuromuscular Junction Dysfunction,1 (<1%) n (%)
same,TEAE: Neutrophil Count Decreased,3 (<1%) n (%)
same,TEAE: Night Cramps,1 (<1%) n (%)
same,TEAE: Nitrite Urine Present,2 (<1%) n (%)
same,TEAE: Non-Accidental Overdose,1 (<1%) n (%)
same,TEAE: Non-Site Specific Injuries NEC,11 (2%) n (%)
same,TEAE: Non-Site Specific Procedural Complications,8 (1%) n (%)
same,"TEAE: Normal Pregnancy, Labour and Delivery*",1 (<1%) n (%)
same,TEAE: Ocular Disorders NEC,1 (<1%) n (%)
same,TEAE: Ocular Nerve and Muscle Disorders,2 (<1%) n (%)
same,TEAE: Oedema NEC,7 (1%) n (%)
same,TEAE: Oedema NOS,1 (<1%) n (%)
same,TEAE: Oedema Peripheral,6 (1%) n (%)
same,TEAE: Ophthalmic Function Diagnostic Procedures,2 (<1%) n (%)
same,TEAE: Oral Dryness and Saliva Altered,2 (<1%) n (%)
same,TEAE: Osteoarthritis Aggravated,3 (<1%) n (%)
same,TEAE: Osteoarthropathies,4 (<1%) n (%)
same,TEAE: Osteopenia,1 (<1%) n (%)
same,TEAE: Osteoporosis NOS,3 (<1%) n (%)
same,TEAE: Otitis Media NOS,1 (<1%) n (%)
same,TEAE: Ovarian Cancer NOS*,1 (<1%) n (%)
same,TEAE: Ovarian Cystadenofibroma*,1 (<1%) n (%)
same,TEAE: Ovarian Neoplasms Benign*,1 (<1%) n (%)
same,TEAE: Ovarian Neoplasms Malignant (Excl Germ Cell)*,1 (<1%) n (%)
same,TEAE: Overdoses,1 (<1%) n (%)
same,TEAE: Pain NOS,3 (<1%) n (%)
same,TEAE: Pain and Discomfort NEC,12 (2%) n (%)
same,TEAE: Pain in Limb,6 (1%) n (%)
same,TEAE: Palpitations,4 (<1%) n (%)
same,TEAE: Panic Attack,1 (<1%) n (%)
same,TEAE: Panic Symptoms,1 (<1%) n (%)
same,TEAE: Papulosquamous Conditions,1 (<1%) n (%)
same,TEAE: Paraesthesias and Dysaesthesias,2 (<1%) n (%)
same,TEAE: Paranasal Sinus Disorders (Excl Infections and Neoplasms),9 (2%) n (%)
same,TEAE: Paranasal Sinus Hypersecretion,1 (<1%) n (%)
same,TEAE: Parkinson's Disease NOS,1 (<1%) n (%)
same,TEAE: Parkinson's Disease and Parkinsonism,1 (<1%) n (%)
same,TEAE: Partial Vision Loss,1 (<1%) n (%)
same,TEAE: Pelvic Pain NOS,2 (<1%) n (%)
same,TEAE: Penile Disorders NEC (Excl Erection and Ejaculation)*,1 (<1%) n (%)
same,TEAE: Penile Haemorrhage*,1 (<1%) n (%)
same,TEAE: Perception Disturbances,1 (<1%) n (%)
same,TEAE: Periorbital Haematoma,1 (<1%) n (%)
same,TEAE: Peripheral Embolism NOS,1 (<1%) n (%)
same,TEAE: Peripheral Embolism and Thrombosis,1 (<1%) n (%)
same,TEAE: Peripheral Swelling,1 (<1%) n (%)
same,TEAE: Peripheral Vascular Disorders NEC,2 (<1%) n (%)
same,TEAE: Pharyngitis,6 (1%) n (%)
same,TEAE: Pharyngitis Streptococcal,7 (1%) n (%)
same,TEAE: Physical Examination Procedures,9 (2%) n (%)
same,TEAE: Plantar Fasciitis,4 (<1%) n (%)
same,TEAE: Pneumonia Mycoplasmal,1 (<1%) n (%)
same,TEAE: Pneumonia NOS,2 (<1%) n (%)
same,TEAE: Polydipsia,1 (<1%) n (%)
same,TEAE: Polyuria,1 (<1%) n (%)
same,TEAE: Popliteal Bursitis,1 (<1%) n (%)
same,TEAE: Post Procedural Discomfort,2 (<1%) n (%)
same,TEAE: Post Procedural Pain,6 (1%) n (%)
same,TEAE: Posterior Capsule Opacification,1 (<1%) n (%)
same,TEAE: Postnasal Drip,1 (<1%) n (%)
same,TEAE: Pregnancy NOS*,1 (<1%) n (%)
same,"TEAE: Pregnancy, Puerperium and Perinatal Conditions",1 (<1%) n (%)
same,TEAE: Premenopause*,1 (<1%) n (%)
same,TEAE: Premenstrual Syndrome*,1 (<1%) n (%)
same,TEAE: Proctalgia,4 (<1%) n (%)
same,TEAE: Productive Cough,1 (<1%) n (%)
same,TEAE: Prostate and Seminal Vesicles Infections and Inflammations*,3 (2%) n (%)
same,TEAE: Prostatitis*,3 (2%) n (%)
same,TEAE: Protein Urine Present,3 (<1%) n (%)
same,TEAE: Proteinuria,1 (<1%) n (%)
same,TEAE: Pruritus Ani,1 (<1%) n (%)
same,TEAE: Pruritus NEC,4 (<1%) n (%)
same,TEAE: Pruritus NOS,4 (<1%) n (%)
same,TEAE: Psoriasis,1 (<1%) n (%)
same,TEAE: Psychiatric Disorders,32 (6%) n (%)
same,TEAE: Psychotic Disorder NEC,1 (<1%) n (%)
same,TEAE: Psychotic Disorder NOS,1 (<1%) n (%)
same,TEAE: Purine Metabolism Disorders NEC,2 (<1%) n (%)
same,TEAE: Pyrexia,3 (<1%) n (%)
same,TEAE: Rash Macular,2 (<1%) n (%)
same,TEAE: Rash NOS,6 (1%) n (%)
same,"TEAE: Rashes, Eruptions and Exanthems NEC",8 (1%) n (%)
same,TEAE: Rate and Rhythm Disorders NEC,4 (<1%) n (%)
same,TEAE: Rectal Cramps,1 (<1%) n (%)
same,TEAE: Rectal Disorder NOS,1 (<1%) n (%)
same,TEAE: Rectal Haemorrhage,8 (1%) n (%)
same,TEAE: Rectal Tenesmus,2 (<1%) n (%)
same,TEAE: Red Blood Cell Analyses,1 (<1%) n (%)
same,TEAE: Red Blood Cells Urine,1 (<1%) n (%)
same,TEAE: Refractive Errors NOS,1 (<1%) n (%)
same,TEAE: Refractive and Accommodative Disorders,1 (<1%) n (%)
same,TEAE: Renal Bruit,1 (<1%) n (%)
same,TEAE: Renal Function Analyses,4 (<1%) n (%)
same,TEAE: Renal Lithiasis,3 (<1%) n (%)
same,TEAE: Renal and Urinary Disorders,17 (3%) n (%)
same,TEAE: Reproductive Organ and Breast Histopathology Procedures,1 (<1%) n (%)
same,TEAE: Reproductive System and Breast Disorders,24 (4%) n (%)
same,TEAE: Reproductive Tract Signs and Symptoms NEC,3 (<1%) n (%)
same,TEAE: Respiratory Tract Congestion,2 (<1%) n (%)
same,TEAE: Respiratory Tract Disorders NEC,2 (<1%) n (%)
same,TEAE: Respiratory Tract Infection NOS,1 (<1%) n (%)
same,"TEAE: Respiratory, Thoracic and Mediastinal Disorders",46 (9%) n (%)
same,TEAE: Retinal Detachment,1 (<1%) n (%)
same,"TEAE: Retinal Structural Change, Deposit and Degeneration",1 (<1%) n (%)
same,TEAE: Rheumatoid Arthritis,1 (<1%) n (%)
same,TEAE: Rheumatoid Arthritis Aggravated,1 (<1%) n (%)
same,TEAE: Rheumatoid Arthropathies,2 (<1%) n (%)
same,TEAE: Rhinitis Allergic NOS,4 (<1%) n (%)
same,TEAE: Rhinitis NOS,3 (<1%) n (%)
same,TEAE: Rhinitis Seasonal,1 (<1%) n (%)
same,TEAE: Rhinoviral Infections,28 (5%) n (%)
same,TEAE: Rib Fracture,1 (<1%) n (%)
same,TEAE: Road Traffic Accident,1 (<1%) n (%)
same,TEAE: Rosacea,1 (<1%) n (%)
same,TEAE: Rosaceas,1 (<1%) n (%)
same,TEAE: Rotator Cuff Syndrome,1 (<1%) n (%)
same,TEAE: Seasonal Allergy,5 (<1%) n (%)
same,TEAE: Seizures and Seizure Disorders NEC,1 (<1%) n (%)
